Laboratory results: US20050261197A1, “Coffee bean extract, method of extraction and composition containing the same” (priority 2004, published 2005)

Columns and labels:
[1] = 11-day body weight gain of rats in the adjuvant-induced arthritis study; format: in vivo, male Sprague-Dawley rats; settings: for Avg. Final Body wt. / Avg. Weight Gain: oral gavage once per day for 11 days
Protocol: (§1) Rats weighting between 275-310 g were purchased from Animal Technologies Ltd., Kent, Wash. They were male Sprague-Dawley rats. The animals were kept individually in stainless steel cages with free access to water and feed (Harlan Teklan Rodent Diet). The light cycle was maintained at 12 hours light and 12 hours dark. The temperature was maintained at 22° C.±3° C. with a relative humidity of 40 to 70%.
(§2) The test materials were delivered orally (by gavage) once per day for 11 days.
(§3) The test materials were given orally (by gavage) to each of 5 rats per treatment group once per day for 11 days. Administration of the test materials was initiated on the day of induction of inflammation.
(§4) The left hind paw was measured just before sensitization and again on Day 11. The plantar edema inhibitory rate and the body weight gain rate were determined by comparison with the non-sensitized rat groups.

[2] = tested on: Adjuvant Induced Arthritis in Rats; assay: Adjuvant-induced arthritis model in rats (paw weight, anti-inflammatory activity); format: in vivo, male Sprague-Dawley rats; settings: oral gavage once per day for 11 days; for Raw Paw Weight: Day 11, group average
Protocol: Adjuvant-induced arthritis responds to both steroids and non-steroids. The degree of inflammation will be assessed by measuring differences in foot weight and/or the foot volume.
as §1
The composite was prepared by combining the isolated compounds genistein, flavionic acid, diadzien, diadzin and the peptide having the sequence Tyrosine-Glycine-Serine-Arginine-Serine. One milligram of each was mixed into 9 ml of distilled water and 1 ml of alcohol. The mixture was then diluted in order to deliver by daily gavage one and 10 mcg doses per kilo body weight.
as §2
Male Sprague-Dawley rats (275-310 g) were sensitized by injecting Fruend's complete adjuvant (0.5% suspension of killed mycobacterium tuberculosis (H37RA, Difco, in mineral oil)). A 0.1 ml aliquot was administered intradermally at a plantar site on the right hind leg of each rat.
as §3, §4
The paw weights for each group were averaged. Anti-inflammatory activity was determined by comparing paw weights calculated as follows: [formula]
Hydrocortisone was used as a positive control. It is a common anti-inflammatory given to rheumatoid arthritis patients at a dose of 10 mg/kg body weight. The composite of the invention was given at 10 mcg/kg and 1 mcg/kg body weight.

Structure (SMILES): C[C@]12CCC(=O)C=C1CC[C@@H]1[C@@H]2[C@@H](O)C[C@@]2(C)[C@H]1CC[C@]2(O)C(=O)CO [Hydrocortisone]
- Avg. Final Body wt. ([1]; 1 mcg/kg body wt.): 331.0 g
- Avg. Weight Gain ([1]; 1 mcg/kg body wt.): 31.4 g
- reduction in weight gain ([1]; 10 mcg/kg body weight, 11 days, versus controls): ~50%
- Avg. Final Body wt. ([1]; 10 mcg/kg body wt.): 317.0 g
- Avg. Weight Gain ([1]; 10 mcg/kg body wt.): 23.6 g
- Raw Paw Weight ([2]; 1 mcg/kg body wt.): 0.80 g
- Raw Paw Weight ([2]; 10 mcg/kg body wt.): 0.76 g
- inhibition at 0.001 mg/kg ([2]; Rattus norvegicus, 264 h, 1 mcg/kg body wt., calculated from paw weights): 50%
- inhibition at 0.01 mg/kg ([2]; Rattus norvegicus, 264 h, 10 mcg/kg body wt., calculated from paw weights): 58%
